One experiment relates to BALB/c and C57BL/6 mice. Put plainly: Wall rearing of mice counted by the force plate actometer algorithm. In kind it is in vivo, mouse. The note with it: amphetamine 2.5 mg/kg, 30-min session. From the text:
The preferred force plate actometer of this invention provides data that, when appropriately filtered and processed, provides estimates of the number of wall rears that an animal makes. This is of importance in pharmacology and behavioral genetics studies because some drugs are known to suppress rearing, and genetic endowment influences mouse rearing behavior. It is possible to detect wall rearing because when the mouse rears on hind legs and presses its forepaws against the side of the enclosure a substantial proportion of its body weight is transferred to the wall which is suspended above the force plate. […] Data from four chambers are concurrently expressed as the smoothed Fz values, and these are processed in a stream from the beginning of the session to the end of the session. The rears are quantified according to occurrence, intensity, duration of the rear, and time between the rears.
The program was validated by comparing the results from a human observer viewing video tapes taken from 30-min sessions of force plate recording for two mice: one BALB/c and one C57BL/6 mouse, two very genetically different mice. In terms of number of rears for the BALB/c mouse the video scored and computer scored wall rears were correlated +0.842 across 30 1-min blocks of the session. […]

In a further experiment the test system is male Sprague-Dawley rats. Put plainly: Instrument-scored stereotypies induced by d-amphetamine in rats (force plate actometer). The class given is in vivo, rat. The protocol: The subjects were male Sprague-Dawley rats about 4 months old at the time of the treatments. Nine rats received amphetamine injections and 8 separate rats got physiological saline injections. These rats weighed about 350 g each and were obtained from Harlan Co., Indianapolis, Ind.
The apparatus was four concurrently operating force plate actometers as described previously.
Rats in the amphetamine group were injected (ip.) with d-amphetamine sulfate 3.0 mg/kg 15 min before being placed in the chambers for 30 min of recording. Amphetamine injections were administered on three separate occasions spaced 2 weeks apart for each amphetamine group rat. Data from the 3rd session, when stereotypies were expected to be intense, were used for the analyses. Rats in the saline group received ip injections of physiological saline before recording sessions on three separate days. Data from the 3rd day were used for comparison with the amphetamine group.
Data were analyzed with the computer program OFFLINEP.PAS (FIGS. 18A-18C) and with additional techniques available in Systat. The program OFFLINEP.PAS identified bouts of low mobility, defined as periods of no locomotion outside of a 30 mm diameter circle for 10.24 s. Corresponding records of the force variation during the same time frame were stored so that the rhythmic components of behavior could be quantified with Fourier analysis. The basic concept was to define stereotypy as the intensity and rhythm of behavior occurring in “one place” under the influence of a stereotypy-inducing dose of amphetamine and to compare these measures to animals “staying in one place” but not under the influence of a drug.

Experiment [1] concerns unilaterally 6-hydroxydopamine lesioned and sham rats. Put plainly: Rotational behavior induced by d-amphetamine in rats unilaterally lesioned with 6-hydroxydopamine (Parkinsonism model). In kind it is in vivo, rat. The note with it: d-amphetamine 3.0 mg/kg ip. As to the method: These rats met the same specifications as those used in Examples 1 and 2.
The apparatus was the force plate actometer with the cylindrical insert installed as depicted in FIG. 20. This insert presents the rat with a circular arena in which it can move. Note that neither harness nor tether was used. The rotations were calculated by the computer from the position coordinates derived from the force plate.
Rats were lesioned with the neurotoxin 6-hydroxydopamine. Surgery was performed under ketamine plus xylazine anesthesia. A Kopf stereotaxic instrument was used to guide the injection cannula to the substantia nigra pars compacta. A sham surgery group received the same surgical procedure but saline instead of toxin. About 2 weeks after surgery and at two week intervals rats received three separate injections of d-amphetamine (3.0 mg/kg, ip, 15 min prior to recording sessions). Data shown here were from one control rat and one lesioned rat for the third drug treatment. Data were analyzed with the OFFLINEP.PAS program (FIGS. 18A-18C).

The subject of experiment [2] is BALB/c, C57BL/6 and CD-1 mice. Put plainly: Mouse strain differences in response to daily treatment with d-amphetamine (force plate actometer). In kind it is in vivo. The protocol: Male mice from Charles River Laboratories. BALB/c (n=32), C57BL/6 (n=32), and CD-1 (an outbred strain, n=32), were about 10 weeks old when the treatments began.
Four currently operating force plate chambers were used (the cylindrical insert was not present).
For each type of mouse, 4 dose groups were formed so that 8 mice of each strain received either saline, 1.0, 2.5 or 5.0 mg/kg d-amphetamine. On five consecutive days the mice received ip injections 1-2 min before being placed in the recording chambers for 30 min. Immediately before the drug session each mouse received a 30-min recording session preceded by a saline injection.
Data were analyzed with a version of OFFLINEP.PAS that divided the session into 9 intervals of 3 min and 24.8 s, instead of 45 frames as in the studies described in the preceding Examples. However, some graphic analyses were carried out with 45 frames. Analysis of variance was used to assess the effects of strain, dose, time within a session, and days of treatment (i.e., a 3×4×9×5 factorial design).

In experiment [3] the test system is CD-1, BALB/c and C57BL/6 mice. The note with it: 2.0 g/kg ip; for locomotor stimulation during the first time block: versus saline control. The protocol:
The subjects were 12 male mice of each of the three strains: CD-1, BALB/c, and C57BL/6 obtained from Charles River Laboratories.
The force plate actometer was used as described above.
The mice were subdivided into groups of 6 each. One group received saline, and the corresponding other group of that strain received a dose of 2.0 g/kg of ethanol in a 20% aqueous solution. This was the first exposure to the chamber for these mice. Within 1-2 min of the ip injection the mice were placed in the chamber and behavior was recorded for 30 min.
The distance data were divided into 6 blocks of 5 min each, and analysis of variance (3 strains×saline vs drug×6 time blocks) was used to establish the presence of effects.

The next experiment deals with male Sprague Dawley rats. Put plainly: Quantification of harmaline-induced tremor in rats (force plate actometer). The class given is in vivo, rat. The protocol: Thirty-two male Sprague Dawley rats from Harlan Co, Indianapolis, Ind., were studied.
The apparatus was the force plate actometer, described above, with no adjustments or modifications. If one were to use the instrument primarily for tremor studies, it would be possible to “tune” it for such purposes. For example, sessions of recording shorter than 30 min may be preferred and a sampling rate of 100 Hz or more may be desirable.
The rats were divided into 4 separate groups of 8 rats each. Separate groups received different doses of Harmaline hydrochloride as follows: 0.0 (saline), 4.0, 8.0, and 16.0 mg/kg, ip, 1-2 minutes before being placed in the recording chamber.
Data from the 30-min sessions were broken into 45 equal-length intervals of 40.96 s (or 2048 samples at a sampling rate of 50 Hz). […] Then, a tremor index was computed for each power spectrum. The tremor index was the difference between the average power in the 0.02-4.980 Hz frequency band and the 5.005-15.015 Hz frequency band of each power spectrum. This calculation emphasizes the peaking of the spectrum in the 5-15 Hz frequency band regardless of the absolute power level of the spectrum. A session average of the tremor index was obtained for each rat. Dose-effects statistical analyses were performed with one-way analysis of variance.

[4] abbreviates: 3.0 mg/kg ip, Fourier analysis, FIG. 3.

Structures can show the parent of a compound that is named as a salt. Where two headings read alike, the source gives them in different places.

In the case of `C[C@H](N)Cc1ccccc1` [amphetamine, d-amphetamine sulfate], in the experiment with BALB/c and C57BL/6 mice (BALB/c mice, untreated mean 92.5 rears), the “mean number of wall rears” value came to 3.75 rears/session. Moreover, in the experiment with BALB/c and C57BL/6 mice (C57BL/6 mice, untreated mean 70.8 rears), the “mean number of wall rears” value is 3.5 rears/session. In the experiment with male Sprague-Dawley rats (3.0 mg/kg ip 15 min before 30-min session, 3rd injection, FIG. 1), the “number of low mobility bouts per frame versus saline control” value was “comparable amounts of low mobility bouts”. The “stereotypy score (activity during low mobility bouts) versus saline control” value with male Sprague-Dawley rats (3.0 mg/kg ip, 3rd injection, FIG. 2) is listed as “very active”. The “visual observation of stereotypies on removal from the chamber” value in the experiment with male Sprague-Dawley rats (3.0 mg/kg ip, 3rd injection, n=9) is “all nine rats were engaged in classical nose poking, sniffing, and head-weaving stereotypies”. Besides, the “difference in spectral power, amphetamine rats above saline controls” value with male Sprague-Dawley rats (3.0 mg/kg ip, FIG. 3 versus FIG. 4, controls show no 10-Hz peak) is 10-20 db. Moreover, in the experiment with male Sprague-Dawley rats (setting [4]), the “frequency range of strong rhythmicity in power spectra of low mobility bouts” value was 8-11 Hz and the “low frequency power in power spectra of low mobility bouts” value is recorded as “distinctive lack of low frequency power below about 0.5 Hz”. In experiment [1] (one 6-OHDA lesioned rat, FIG. 8), the “rotational behavior, movement tracings” value was “robust rotational behavior”. Moreover, the “rotations to the right in 30-min session” value in experiment [1] (one 6-OHDA lesioned rat, third treatment, FIG. 10) turned out to be 62 rotations. In addition, the “bouts of high activity with low mobility (stereotypy score)” value in experiment [1] (one 6-OHDA lesioned rat, third treatment, FIG. 12) is reported as “four”. Moreover, the “locomotion, movement tracings” value in experiment [1] (one unlesioned control rat, FIG. 7) was “very little locomotion”. In addition, the stereotypy score in experiment [1] (one unlesioned control rat, frame 14 to end of session, FIG. 11) is 250-300. Besides, the “leftward rotations at the beginning of the session” value in experiment [1] (one unlesioned control rat, third treatment, FIG. 9) is on record as 12 rotations. For the same molecule, the “distance traveled, ranking of strains” value in experiment [2] (2.5 mg/kg ip, CD-1, C57BL/6, BALB/c, FIG. 15) is “CD-1's were stimulated the most and the BALB/c's the least”. For the same molecule, the “spatial statistic, restriction of movements in space” value in experiment [2] (BALB/c mouse, the two highest doses (2.5 and 5.0 mg/kg)) is recorded as “greater tendency to restrict its movements in space”. Also, the “distance traveled across the 5 treatment days” value in experiment [2] (C57BL/6 mouse, 2.5 mg/kg ip) is listed as “showed a sensitization effect”. The “movement trajectories (locomotion)” value in experiment [2] (one C57BL/6 mouse, fifth injection of 5.0 mg/kg ip, FIG. 14 versus saline FIG. 13) is reported as “locomotor stimulating effect of the drug is apparent”. Further, in experiment [2] (three mouse strains, saline, 1.0, 2.5, 5.0 mg/kg ip, 5 days, ANOVA dose F(3,84)=73.787, p<0.001, strain-by-dose F(6,84)=9.293, p<0.001, FIG. 15), the “distance traveled, effect of dose” value is “significant effects”. Moreover, in experiment [2] (three mouse strains, saline, 1.0, 2.5, 5.0 mg/kg ip, ANOVA dose F(3,84)=38.192, p<0.001, strain-by-dose F(6,84)=4.991, p<0.001, FIG. 16), the “spatial statistic (spatial index), effect of dose” value was “significant effects”.

With `CCO` [ethanol], the “distance traveled, strain-by-ethanol interaction” value in experiment [3] (ANOVA F(2,30)=3.257, p=0.05) is “significant strain-by-ethanol interaction”. The “distance traveled, time-by-ethanol interaction” value in experiment [3] (ANOVA F(5,150)=7.629, p<0.001) is on record as “significant-time-by-ethanol interaction”. The “locomotor stimulation during the first time block” value in experiment [3] (BALB/c strain) is recorded as “greater amount of ethanol related locomotor stimulation”; in experiment [3] (CD-1 strain) it was “least stimulation”. In experiment [3] (BALB/c, early in session), the “proportional increase in activity, BALB/c versus other strains” value is reported as “greatest proportional increase in activity”. The “distance traveled versus saline treated mice” value in experiment [3] (three mouse strains, 30 min in 5-min blocks, FIG. 17) was “initially stimulated”.

As to `COc1ccc2c3c([nH]c2c1)C(C)=NCC3.Cl` [harmaline, Harmaline hydrochloride], the “effect of dose on tremor index” value in the experiment on male Sprague Dawley rats (rats, 0, 4.0, 8.0, 16.0 mg/kg ip, session average, one-way ANOVA F (3,28)=5.090, p=0.006, FIG. 6) is given as “statistically significant”. The “latency to the first bout of low mobility” value in the experiment with male Sprague Dawley rats (rats, 0-16.0 mg/kg ip, F(2,28)=3.222, p=0.038) is “significantly shortened”. For the same molecule, in the experiment on male Sprague Dawley rats (rats, 0-16.0 mg/kg ip, FIG. 6), the “shape of the dose-effect function of the tremor index” value is listed as “log linear”. The “effect on locomotor activity” value in the experiment with male Sprague Dawley rats (rats, 0-16.0 mg/kg ip, same session, F(3,28)=6.514, p=0.002) is “dose-relatedly suppressed locomotor activity”. For the same molecule, in the experiment with male Sprague Dawley rats (rats, the two higher doses (8.0 and 16.0 mg/kg ip), one rat per dose, FIG. 5), the “peaking in the power spectra of Fz force” value is recorded as “pronounced”.

The values are drawn from patent US6601010B1 (priority 2000, dated 2003).
